According to US12110294B2, “CD73 compounds” (Gilead Sciences, Inc., priority 2020, dated 2024):

molecular target: T1, CD73 activity in MDA-MB-231-GFP cells (Homo sapiens, UniProt P21589); test: MDA-MB-231 Cell Based CD73 Activity Assay (DMEM); conditions: 3000 cells per well, DMEM medium with 10% human plasma, overnight compound treatment, AMP 200 uM
T1 construct: endogenous in cells; host or cells: MDA-MB-231-GFP cells
T1 sequence (P21589 27-549): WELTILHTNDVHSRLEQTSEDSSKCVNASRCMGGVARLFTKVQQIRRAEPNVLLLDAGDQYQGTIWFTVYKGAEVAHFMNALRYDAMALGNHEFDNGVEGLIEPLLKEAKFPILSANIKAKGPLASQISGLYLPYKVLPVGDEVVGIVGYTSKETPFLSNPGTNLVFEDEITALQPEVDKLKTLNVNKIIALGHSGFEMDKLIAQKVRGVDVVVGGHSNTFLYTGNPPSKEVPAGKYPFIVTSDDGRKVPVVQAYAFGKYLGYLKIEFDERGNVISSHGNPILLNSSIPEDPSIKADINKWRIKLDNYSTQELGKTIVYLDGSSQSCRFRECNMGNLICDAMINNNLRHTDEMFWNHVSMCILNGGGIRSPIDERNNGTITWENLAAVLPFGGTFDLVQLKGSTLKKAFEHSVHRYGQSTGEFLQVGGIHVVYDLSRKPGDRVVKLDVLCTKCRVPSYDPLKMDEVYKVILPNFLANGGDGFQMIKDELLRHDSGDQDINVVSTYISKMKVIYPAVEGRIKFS

SMILES | EC50 [nM]
CNC(=O)c1ccc([C@H]2C[C@@H]2c2cc(-c3c[nH]c(=O)[nH]c3=O)nn3c(F)cnc23)cc1 (racemic) [Example 312, 4-((2S,2S)-2-(6-(2,4-dioxo-1,2,3,4-tetrahydropyrimidin-5-yl)-3-fluoroimidazo[1,2-b]pyridazin-8-yl)cyclopropyl)-N-methylbenzamide] | 4.17
Cc1nc2cc([C@H]3C[C@@H]3c3cc(-c4c[nH]c(=O)[nH]c4=O)nn4ccnc34)ccc2s1 (racemic) [Example 321, 5-(8-((2S,2S)-2-(2-methylbenzo[d]thiazol-5-yl)cyclopropyl)imidazo[1,2-b]pyridazin-6-yl)pyrimidine-2,4(1H,3H)-dione] | 11.2
Cn1ncc2ccc([C@H]3C[C@@H]3c3cc(-c4c[nH]c(=O)[nH]c4=O)nn4ccnc34)cc21 (racemic) [Example 326, 5-(8-((1S,2S)-2-(1-methyl-1H-indazol-6-yl)cyclopropyl)imidazo[1,2-b]pyridazin-6-yl)pyrimidine-2,4(1H,3H)-dione] | 2.66
O=c1[nH]cc(-c2cc([C@H]3C[C@@H]3c3ccc(OC(F)(F)F)cc3)c3nccn3n2)c(=O)[nH]1 (racemic) [Example 359, 5-(8-((1S,2S)-2-(4-(trifluoromethoxy)phenyl)cyclopropyl)imidazo[1,2-b]pyridazin-6-yl)pyrimidine-2,4(1H,3H)-dione] | 22
O=c1[nH]cc(-c2cc([C@H]3C[C@@H]3c3ccc(OCC(F)(F)F)cn3)c3nccn3n2)c(=O)[nH]1 (racemic) [Example 363, 5-(8-((1S,2S)-2-(5-(2,2,2-trifluoroethoxy)pyridin-2-yl)cyclopropyl)imidazo[1,2-b]pyridazin-6-yl)pyrimidine-2,4(1H,3H)-dione] | 5.5
O=c1[nH]cc(-c2cc([C@H]3C[C@@H]3c3ncc(C(F)(F)F)s3)c3nccn3n2)c(=O)[nH]1 (racemic) [Example 364, 5-(8-((1S,2S)-2-(5-(trifluoromethyl)thiazol-2-yl)cyclopropyl)imidazo[1,2-b]pyridazin-6-yl)pyrimidine-2,4(1H,3H)-dione] | 34
O=c1[nH]cc(-c2cc([C@H]3C[C@@H]3c3cnn(C(F)(F)F)c3)c3nccn3n2)c(=O)[nH]1 (racemic) [Example 366, 5-(8-((1S,2S)-2-(1-(trifluoromethyl)-1H-pyrazol-4-yl)cyclopropyl)imidazo[1,2-b]pyridazin-6-yl)pyrimidine-2,4(1H,3H)-dione] | 16.4
O=c1[nH]cc(-c2cc([C@H]3C[C@@H]3c3cnn(C(F)F)c3)c3nccn3n2)c(=O)[nH]1 (racemic) [Example 368, 5-(8-((2S,2S)-2-(1-(difluoromethyl)-1H-pyrazol-4-yl)cyclopropyl)imidazo[1,2-b]pyridazin-6-yl)pyrimidine-2,4(1H,3H)-dione] | 20.3
O=c1[nH]cc(-c2cc([C@H]3C[C@@H]3c3ccn(C(F)F)n3)c3nccn3n2)c(=O)[nH]1 (racemic) [Example 369, 5-(8-((1S,2S)-2-(1-(difluoromethyl)-1H-pyrazol-3-yl)cyclopropyl)imidazo[1,2-b]pyridazin-6-yl)pyrimidine-2,4(1H,3H)-dione] | 27.5
O=c1[nH]cc(-c2cc([C@H]3C[C@@H]3c3cnn(C(F)F)c3)c3ncc(F)n3n2)c(=O)[nH]1 (racemic) [Example 370, 5-(8-((1S,2S)-2-(1-(difluoromethyl)-1H-pyrazol-4-yl)cyclopropyl)-3-fluoroimidazo[1,2-b]pyridazin-6-yl)pyrimidine-2,4(1H,3H)-dione] | 15.7
O=c1[nH]cc(-c2cc([C@H]3C[C@@H]3c3ccc(OC(F)(F)F)cn3)c3nccn3n2)c(=O)[nH]1 (racemic) [Example 372, 5-(8-((1S,2S)-2-(5-(trifluoromethoxy)pyridin-2-yl)cyclopropyl)imidazo[1,2-b]pyridazin-6-yl)pyrimidine-2,4(1H,3H)-dione] | 9.23
